According to patent US7087658B2, “Water-soluble coating agents bearing initiator groups” (SurModics, Inc., priority 1999, dated 2006):

Legend:
platelets = assay: Platelet attachment and activation from platelet rich plasma (SEM); type: cell-based, human; details: coated polyethylene (PE); for Platelet activation, spreading and aggregation: SEM
Method: The surface-modified materials were incubated with platelet rich plasma (PRP), observed with a scanning electron microscope and photographed to determine the influence of surface chemistry on platelet attachment and activation.
Blood was collected fresh from human volunteers into 3.8% (v/v) sodium citrate solution using 9:1 ratio of blood to anticoagulant. The blood was centrifuged at 1200 rpm for 15 minutes to separate PRP from blood. The PRP was collected and kept at room temperature until used (less than 1 hour).
The test samples (½-inch circles) were placed in a 6-well plate, 1 sample per well. The PRP solution was added onto the top of the samples until the entire surface of the sample was covered, and the samples were incubated one hour at room temperature with no agitation. To quantify the platelet solution, a sample of the PRP was taken and diluted 1:100 with 1% (v/v) Oxalate Ammonium. A capillary tube was used to transfer a small amount of solution to a hemacytometer, and the sample was incubated in a covered petri dish for 30 minutes at room temperature for the platelets to settle.
The platelets were counted under a phase contrast microscope and determined to be approximately 50–100×10^9 platelets/L. After incubation, the PRP was removed carefully by aspiration and 3 mls of Tyrode's buffer (138-mM NaCl, 2.9-mM KCl, 12-mM sodium bicarbonate, pH 7.4) gently added to each well. The plates were agitated slightly on an orbital shaker for 15 minutes; the solution was changed and the wash repeated. The wash solution was aspirated and 2.0 ml of Karnovsky's fixative (25-mls formaldehyde, 5-mls 25% glutaraldehyde, 20-mls of a solution of 23% NaH2PO4—H2O, 77% NaHPO4 anhydrous) were added to each well. The plate was wrapped with parafilm and incubated overnight at room temperature with slight agitation.
The fixative was aspirated off and the samples were washed 3 times each with pure water, 15 minutes each. […] The platelets were counted and judged by degree of activation and morphology.

[1] = system: intrinsic and common pathways of coagulation; assay: Partial thromboplastin time (PTT) test; type: biochemical
Method: A useful test in determining the hemocompatibility of a reagent is the partial thromboplastin time (PTT) test. The PTT is a test of the intrinsic (factors VIII, IX, XI, and XII) and common (fibrinogen, prothrombin, factors V and X) pathways of coagulation. A mixture of plasma and phospholipid platelet substitute (rabbit brain cephalin) is recalcified and the time required for the appearance of fibrin strands measured.
The PTT was tested to determine whether Compound I or Compound II have the ability to extend the control PTT. A test tube of rabbit brain cephalin (Sigma #RBC) in 0.85% NaCl and a test tube of 0.02 M CaCl2 was brought to 37° C. in a water bath. Dade Ci-trol coagulation control lyophilized plasma (Dade International, Inc., product no. 34224-10) was reconstituted in sterile deionized water. In 10×75 mm glass test tubes, 100 μl reconstituted plasma and 100 μl RBC were mixed and incubated at 37° C. in a water bath for 5 minutes. Next, 50 μl of sample (deionized water, a photocrosslinkable polyvinylpyrrolidone (available from SurModics, Inc., product no. PVO5), or Compound I or II) was added and mixed. While simultaneously starting a stop watch, 100 μl of 0.02 M CaCl2 was added to initiate the clotting cascade. After 40 seconds had passed, the test tubes were shaken lightly, observed for fibrin formation, and the number of seconds was recorded.
All samples were tested in duplicate. The appropriate control PTT, depending upon what solvent in which the reagent was dissolved, was subtracted from the average PTT for the reagent to give the time the control PTT was extended.

[2] = system: Beta-Thromboglobulin (β-TG) released from the α-granules of platelets; assay: Beta-Thromboglobulin assay; type: cell-based, human; details: coated polyethylene; PRP, one hour at room temperature; enzyme immunoassay
Method: The surface-modified materials were incubated with PRP and the plasma was assayed for the Beta-Thromboglobulin (β-TG) released from the α-granules due to activation of the platelets. Blood was collected fresh from human volunteers into 3.8% (v/v) sodium citrate using 9:1 ratio of blood to anticoagulant. The blood was centrifuged at 1200 rpm for 15 minutes to separate PRP from blood. The PRP was collected and kept at room temperature until used (less than 1 h). The test samples (½-inch circles) were placed in a 6-well plate, 1 sample per well. The PRP solution was added onto the top of the samples until the entire surface of the sample was covered, and the samples incubated one hour at room temperature with no agitation. Control samples of plasma, for initial β-TG levels, were taken prior to incubation.
After incubation with the samples, prostaglandin E1 (Sigma, product no. P5515) was added to each sample and the plasma was assayed with an enzyme immunoassay kit (Asserachrom American Bioproduct, product no. 0250) for the amount of β-TG released.

[3] = final concentration 0.7 mg/ml, solvent 50% IPA
[4] = final concentration 1.29 mg/ml, solvent 50% IPA
[5] = final concentration 0.7 mg/ml, solvent H2O
[6] = final concentration 1.43 mg/ml, solvent H2O

Row | SMILES | Platelet activation, spreading and aggregation (platelets) | Average PTT [1, 3] [s] | Formed Clot [1, 3] | Time Extended Beyond Control PTT ([1]; final concentration 0.7 mg/ml, solvent 50% IPA, 50% IPA control subtracted) [s] | Average PTT [1, 4] [s] | Formed Clot [1, 4] | Time Extended Beyond Control PTT ([1]; final concentration 1.29 mg/ml, solvent 50% IPA, 50% IPA control subtracted) [s] | Extension of the 50% IPA control PTT ([1]; higher of the two final concentrations tested, 50% IPA control) [h] | Extension of PTT from water control ([1]; higher of the two final concentrations tested, water control) [h] | Morphology of platelets attached to modified surfaces (platelets; SEM photographs) | Average PTT [1, 5] [s] | Formed Clot [1, 5] | Time Extended Beyond Control PTT ([1]; final concentration 0.7 mg/ml, solvent H2O, DI H2O control subtracted) [s] | Average PTT [1, 6] [s] | Formed Clot [1, 6] | Time Extended Beyond Control PTT ([1]; final concentration 1.43 mg/ml, solvent H2O, DI H2O control subtracted) [s] | β-TG release [2]
1 | O=C(c1ccccc1)c1ccc(COc2cc(S(=O)(=O)[O-])c(OCc3ccc(C(=O)c4ccccc4)cc3)cc2S(=O)(=O)[O-])cc1.[K+].[K+] [Compound II, 2,5-bis(4-benzoylphenylmethyleneoxy) benzene-1,4-disulfonic acid dipotassium salt] | some spreading pseudopodia, but little or no aggregating | 134 | yes | 56 | 3600 | yes | 3522 | 1 | ≥ 1 |  |  |  |  |  |  |  | 
2 | O=C(c1ccccc1)c1ccc(COc2cc(S(=O)(=O)[O-])cc(S(=O)(=O)[O-])c2OCc2ccc(C(=O)c3ccccc3)cc2)cc1.[K+].[K+] [Compound I, 4,5-bis(4-benzoylphenylmethyleneoxy) benzene-1,3-disulfonic acid disodium salt] | less activation and spreading |  |  |  |  |  |  |  |  | Full coverage, many aggregates, little | 117 | yes | 64 | >3600 | no | >3600 | lower levels of β-TG release than the uncoated and PVO5 controls
